The target in this assay is N-terminally GST-tagged HCK (75-526) (Homo sapiens (Human), UniProt P08631). As to the kind of experiment: HCK Kinase Assay (ProFluor Src-Family Kinase Assay). Type of assay: biochemical. On the procedure:
The procedure of ProFluor Src-Family Kinase Assay (Promega, Cat. No. V1271) was then followed. To the reaction was added 5 μL Protease solution and the mixture was incubated for 60 minutes at room temperature (22-25° C.), followed by 5 μL Stabilizer solution. The fluorescence signal was read on an Envision multilabel plate reader (Perkin Elmer). The R110 was then read at an excitation wavelength of 485 nm and an emission wavelength of 530 nm. The AMC signal was read at an excitation wavelength of 355 nm and an emission wavelength of 460 nm.

The mark [1] stands for this setting: HCK inhibitory activity, 50 μM ATP, read-out: HCK Activity.

Read-outs that look alike come from different tables or passages of the source.

Sequence of N-terminally GST-tagged HCK (75-526) (P08631 75-526): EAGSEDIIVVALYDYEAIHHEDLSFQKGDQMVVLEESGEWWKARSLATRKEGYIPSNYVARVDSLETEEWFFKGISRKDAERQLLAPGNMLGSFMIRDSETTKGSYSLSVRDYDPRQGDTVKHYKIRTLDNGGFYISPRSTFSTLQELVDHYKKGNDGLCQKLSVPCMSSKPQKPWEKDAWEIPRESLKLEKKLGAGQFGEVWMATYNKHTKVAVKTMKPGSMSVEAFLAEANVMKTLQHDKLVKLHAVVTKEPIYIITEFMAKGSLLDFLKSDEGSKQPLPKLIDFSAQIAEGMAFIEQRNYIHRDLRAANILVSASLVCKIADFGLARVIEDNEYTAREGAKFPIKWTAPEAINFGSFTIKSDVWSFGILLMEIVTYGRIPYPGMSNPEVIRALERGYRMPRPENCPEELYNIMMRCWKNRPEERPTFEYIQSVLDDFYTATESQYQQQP

`Nc1ncnc2c1c(-c1ccc(Oc3ccccc3)cc1)cn2C1CCC2(CC1)NC(=O)N(c1ccncc1)C2=O` (centres unmarked) [Example 93, 8-(4-Amino-5-(4-phenoxyphenyl)-7H-pyrrolo[2,3-d]pyrimidin-7-yl)-3-(pyridin-4-yl)-1,3-diazaspiro [4.5] decane-2,4-dione]: the IC50 under setting [1] was 50 to 250 nM. The same measure, in the same setting: in the case of `CC[C@H]1CN([C@H]2CC[C@@H](n3cc(-c4ccc(Oc5ccccc5)cc4)c4c(N)ncnc43)CC2)CCN1` [Example 30, 7-((cis)-4-((S)-3-ethylpiperazin-1-yl)cyclohexyl)-5-(4-phenoxyphenyl)-7H-pyrrolo[2,3-d]pyrimidin-4-amine] it was 50 to 250 nM. As to `[2H]C([2H])([2H])N1C([2H])([2H])C([2H])([2H])N([C@H]2CC[C@@H](n3cc(-c4ccc(Oc5ccccc5)cc4)c4c(N)ncnc43)CC2)C([2H])([2H])C1([2H])[2H]` (single isomer, unassigned) [Example 6, 7-((cis)-4-(4-d3-methyl-d8-piperazin-1-yl)cyclohexyl)-5-(4-phenoxyphenyl)-7H-pyrrolo[2,3-d]pyrimidin-4-amine], the IC50 is less than 50 nM.

Take `C[C@@H]1CN([C@H]2CC[C@@H](n3nc(-c4ccc(Oc5ccccc5)cc4F)c4c(N)ncnc43)CC2)CCN1` [Example 18, 3-(2-fluoro-4-phenoxyphenyl)-1-((cis)-4-((R)-3-methylpiperazin-1-yl)cyclohexyl)-1H-pyrazolo[3,4-d]pyrimidin-4-amine]: the IC50 under setting [1] was 250 to 10000 nM. On the same count and under the same terms, the same measure for `Nc1ncnc2c1c(-c1ccc(Oc3ccccc3)cc1)cn2[C@H]1CC[C@@H](N2CCCC(N)C2)CC1` (stereo partly drawn) [Example 55, 7-((cis)-4-(3-aminopiperidin-1-yl)cyclohexyl)-5-(4-phenoxyphenyl)-7H-pyrrolo[2,3-d]pyrimidin-4-amine]: less than 50 nM. On the same count and under the same terms, in the case of `CN1CCN([C@H]2CC[C@H](c3nc(-c4ccc(NC(=O)Nc5cc(C(C)(C)C)on5)cc4)c4c(N)nccn43)CC2)CC1` [Example 175, 1-(4-(8-amino-3-((trans)-4-(4-methylpiperazin-1-yl)cyclohexyl)imidazo[1,5-a]pyrazin-1-yl)phenyl)-3-(5-(tert-butyl)isoxazol-3-yl)urea] it was less than 50 nM. In the case of `Nc1ncnc2c1c(-c1ccc(Oc3ccccc3)cc1)cn2[C@H]1CC[C@@H](N2CCC(N)CC2)CC1` [Example 53, 7-((cis)-4-(4-aminopiperidin-1-yl)cyclohexyl)-5-(4-phenoxyphenyl)-7H-pyrrolo[2,3-d]pyrimidin-4-amine], the IC50 under setting [1] fell in the range of 50 to 250 nM. Same read-out and setting: in the case of `CN1CCN([C@H]2CC[C@H](n3cc(-c4ccc(Oc5ccccc5)cc4)c4c(N)ncnc43)CC2)CC1(C)C` [Example 27, 5-(4-phenoxyphenyl)-7-((trans)-4-(3,3,4-trimethylpiperazin-1-yl)cyclohexyl)-7H-pyrrolo[2,3-d] pyrimidin-4-amine] it was less than 50 nM. Consider `CN1CCN([C@H]2CC[C@H](n3cc(-c4ccc(Oc5ccccc5)cc4F)c4c(N)ncnc43)CC2)CC1` [Example 105, 5-(2-fluoro-4-phenoxyphenyl)-7-((trans)-4-(4-methylpiperazin-1-yl)cyclohexyl)-7H-pyrrolo[2,3-d]pyrimidin-4-amine], for which, under setting [1], the IC50 was less than 50 nM.

Turning to `Nc1ncnc2c1c(-c1ccc(Oc3ccccc3)cc1)cn2[C@H]1CC[C@H](N2CCNCC2=O)CC1` [Example 90, 1-((trans)-4-(4-Amino-5-(4-phenoxyphenyl)-7H-pyrrolo[2,3-d]pyrimidin-7-yl)cyclohexyl)piperazin-2-one], under setting [1], the IC50 is less than 50 nM. Still for that read-out and setting: the same measure for `CNC(=O)CC1(NC)CCC(n2cc(-c3ccc(Oc4ccccc4)cc3)c3c(N)ncnc32)CC1` (centres unmarked) [Example 98, 2-(4-(4-amino-5-(4-phenoxyphenyl)-7H-pyrrolo[2,3-d]pyrimidin-7-yl)-1-(methylamino)cyclohexyl)-N-methylacetamide]: less than 50 nM; for `Nc1ncn([C@H]2CC[C@H](n3cc(-c4ccc(Oc5ccccc5)cc4)c4c(N)ncnc43)CC2)n1` [Example 81, 7-((trans)-4-(3-amino-1H-1,2,4-triazol-1-yl)cyclohexyl)-5-(4-phenoxyphenyl)-7H-pyrrolo [2,3-d]pyrimidin-4-amine]: less than 50 nM; for `CN1CCOC(C2CCC(n3cc(-c4ccc(Oc5ccccc5)cc4)c4c(N)ncnc43)CC2)C1=O` (centres unmarked) [Example 143, 2-(4-(4-Amino-5-(4-phenoxyphenyl)-7H-pyrrolo[2,3-d]pyrimidin-7-yl)cyclohexyl)-4-methylmorpholin-3-one]: 50 to 250 nM.

With `CC(=O)NN1CCN([C@H]2CC[C@H](n3cc(-c4ccc(Oc5ccccc5)cc4)c4c(N)ncnc43)CC2)CC1` [Example 40, N-(4-((trans)-4-(4-amino-5-(4-phenoxyphenyl)-7H-pyrrolo[2,3-d]pyrimidin-7-yl)cyclohexyl)piperazin-1-yl)acetamide], the IC50 under setting [1] is less than 50 nM. The same measure, in the same setting: the same measure for `COC(=O)C1CC(N2CCC(n3cc(-c4ccc(Oc5ccccc5)cc4)c4c(N)ncnc43)CC2)CCN1` (centres unmarked) [Example 158, methyl 4-(4-amino-5-(4-phenoxyphenyl)-7H-pyrrolo[2,3-d]pyrimidin-7-yl)-[1,4′-bipiperidine]-2′-carboxylate]: 50 to 250 nM. Still for that read-out and setting: the same measure for `C[C@H]1CN([C@H]2CC[C@@H](n3nc(-c4ccc(Oc5ccccc5)cc4F)c4c(N)ncnc43)CC2)CCN1` [Example 128, 3-(2-fluoro-4-phenoxyphenyl)-1-((cis)-4-((S)-3-methylpiperazin-1-yl)cyclohexyl)-1H-pyrazolo[3,4-d]pyrimidin-4-amine]: 50 to 250 nM. On the same count and under the same terms, the same measure for `NC(=O)CC1(N)CCC(n2cc(-c3ccc(Oc4ccccc4)cc3)c3c(N)ncnc32)CC1` (centres unmarked) [Example 96, 2-(1-Amino-4-(4-amino-5-(4-phenoxyphenyl)-7H-pyrrolo[2,3-d]pyrimidin-7-yl)cyclohexyl)acetamide]: less than 50 nM; for `C[C@@H]1CN([C@H]2CC[C@H](n3nc(-c4ccc(Oc5ccccc5)cc4)c4c(N)ncnc43)CC2)CCN1` [Example 14, 1-((trans)-4-((R)-3-methylpiperazin-1-yl)cyclohexyl)-3-(4-phenoxyphenyl)-1H-pyrazolo[3,4-d]pyrimidin-4-amine]: less than 50 nM; for `NCC1OCC(N2CCC(n3cc(-c4ccc(Oc5ccccc5)cc4)c4c(N)ncnc43)CC2)CO1` (centres unmarked) [Example 162, 7-(1-(2-(aminomethyl)-1,3-dioxan-5-yl)piperidin-4-yl)-5-(4-phenoxyphenyl)-7H-pyrrolo[2,3-d]pyrimidin-4-amine]: less than 50 nM.

On to `Nc1ncnc2c1c(-c1ccc(Oc3ccccc3)cc1F)nn2[C@H]1CC[C@@H](N2CCN(CCO)CC2)CC1` [Example 11, 2-(4-((cis)-4-(4-amino-3-(2-fluoro-4-phenoxyphenyl)-1H-pyrazolo[3,4-d]pyrimidin-1-yl)cyclohexyl)piperazin-1-yl)ethanol], for which the IC50 under setting [1] fell in the range of 50 to 250 nM. On the same count and under the same terms, the same measure for `CN1CCC2(CCC(n3cc(-c4ccc(Oc5ccccc5)cc4)c4c(N)ncnc43)CC2)CC1` [Example 142, 7-(3-methyl-3-azaspiro[5.5]undecan-9-yl)-5-(4-phenoxyphenyl)-7H-pyrrolo[2,3-d]pyrimidin-4-amine]: less than 50 nM; for `CN1CCC(N2CCC(n3nc(-c4ccc(NC(=O)Nc5cc(C(C)(C)C)on5)cc4)c4c(N)ncnc43)CC2)CC1` [Example 148, 1-(4-(4-Amino-1-(1′-methyl-[1,4′-bipiperidin]-4-yl)-1H-pyrazolo[3,4-d]pyrimidin-3-yl)phenyl)-3-(5-(tert-butyl)isoxazol-3-yl)urea]: 50 to 250 nM; for `CP1(=O)CCN([C@H]2CC[C@@H](n3cc(-c4ccc(Oc5ccccc5)cc4)c4c(N)ncnc43)CC2)CC1` [Example 68, 1-((cis)-4-(4-amino-5-(4-phenoxyphenyl)-7H-pyrrolo[2,3-d]pyrimidin-7-yl)cyclohexyl)-4-methyl-1,4-azaphosphinane 4-oxide]: less than 50 nM.

Regarding `COc1cc(-c2cn([C@H]3CO[C@H](C4CCN(C)CC4)OC3)c3ncnc(N)c23)ccc1Oc1ccccc1` [Example 131, 5-(3-methoxy-4-phenoxyphenyl)-7-((trans)-2-(1-methylpiperidin-4-yl)-1,3-dioxan-5-yl)-7H-pyrrolo[2,3-d]pyrimidin-4-amine], under setting [1], the IC50 lay in the range of 50 to 250 nM. On to `CN1CCN([C@H]2CC[C@H](n3cc(-c4ccc(Oc5c(F)cccc5F)cc4)c4c(N)ncnc43)CC2)CC1` [Example 109, 5-(4-(2,6-difluorophenoxy)phenyl)-7-((trans)-4-(4-methylpiperazin-1-yl)cyclohexyl)-7H-pyrrolo[2,3-d]pyrimidin-4-amine], for which the IC50 under setting [1] was less than 50 nM. Still for that read-out and setting: in the case of `CN1CCN([C@H]2CC[C@@H](c3cc(-c4ccc(NC(=O)Nc5cc(C(C)(C)C)on5)cc4)c4c(N)ncnn43)CC2)CC1` [Example 172] it was less than 50 nM. Still for that read-out and setting: the same measure for `CC[C@H]1CN([C@H]2CC[C@H](n3cc(-c4ccc(Oc5ccccc5)cc4)c4c(N)ncnc43)CC2)CCN1` [Example 29, 7-((trans)-4-((S)-3-ethylpiperazin-1-yl)cyclohexyl)-5-(4-phenoxyphenyl)-7H-pyrrolo[2,3-d]pyrimidin-4-amine]: 50 to 250 nM; for `Nc1ncnc2c1c(-c1ccc(Oc3ccccc3)cc1)cn2[C@H]1CC[C@H](NC2CNC2)CC1` [Example 83, 7-((trans)-4-(azetidin-3-ylamino)cyclohexyl)-5-(4-phenoxyphenyl)-7H-pyrrolo[2,3-d]pyrimidin-4-amine]: 50 to 250 nM. In the case of `[2H]C([2H])([2H])N1C([2H])([2H])C([2H])([2H])N([C@H]2CC[C@H](n3cc(-c4ccc(Oc5ccccc5)cc4)c4c(N)ncnc43)CC2)C([2H])([2H])C1([2H])[2H]` (single isomer, unassigned) [Example 5, 7-((trans)-4-(4-d3-methyl-d8-piperazin-1-yl)cyclohexyl)-5-(4-phenoxyphenyl)-7H-pyrrolo[2,3-d]pyrimidin-4-amine], the IC50 fell in the range of 250 to 10000 nM.
